Measurements taken from US20260224582A1, “Heterobicyclic amides as inhibitors of CD38” (Cerevance, Inc., priority 2022, published 2026).

Tests used:
[1] = Tissue binding assay (equilibrium dialysis), brain homogenate; format: in vitro ADME; details: mouse brain homogenate, dialysis 4 hours at 37° C., pH 7.4
Protocol: (§1) Buffer preparation. A basic solution was prepared by dissolving 14.2 g/L Na2HPO4 and 8.77 g/L NaCl in deionized H2O. An acidic solution was prepared by dissolving 15.6 g/L NaH2PO4·2H2O and 8.77 g/L NaCl in deionized H2O. Using the acidic solution, the basic solution was then titrated to pH 7.4±0.1 and stored at 4° C. for up to 1 month. The stop solution was 100% CH3CN containing 200 ng/ml tolbutamide, 200 ng/ml labetalol and 50 ng/ml metformin.
(§2) Test method. Dialysis membrane strips were soaked in ultra-pure water at room temperature for ~1 hour. Each membrane strip containing 2 membranes was separated and soaked in 20:80 EtOH/H2O (v/v) for ~20 min, after which they were ready for use or were stored in the solution at 2-8° C. for up to 1 month. Prior to the experiment, the membrane was rinsed and soaked for 20 min in ultra-pure water. On the day of experiment, brain homogenate was thawed in a water bath at room temperature and incubated at 37° C. for 10 min before use. Test and control compounds were dissolved in DMSO to achieve 10 mM stock solutions. DMSO working solutions were prepared at 400 μM by diluting 10 μL of stock solution. To prepare the time zero (t=0) samples to be used for recovery determination, 50 μL aliquots of loading matrix were transferred in triplicate to the sample collection plate. The samples were immediately matched with opposite blank buffer to obtain a final volume of 100 μL of 1:1 matrix/dialysis buffer (v/v) in each well. 500 μL of stop solution were added to these t=0 samples. They were then stored at 2-8° C. pending further processes along with other post-dialysis samples. To load the dialysis device, an aliquot of 150 μL of the loading matrix was transferred to the donor side of each dialysis well in triplicate, and 150 μL of the dialysis buffer was loaded to the receiver side of the well. The dialysis plate was placed in a humidified incubator at 37° C. with 5% CO2 on a shaking platform that rotated slowly (about 100 rpm) for 4 hours. At the end of the dialysis, aliquots of 50 μL of samples were taken from both the buffer side and the matrix side of the dialysis device. These samples were transferred into new 96-well plates. Each sample was mixed with an equal volume of opposite blank matrix (buffer or matrix) to reach a final volume of 100 μL of 1:1 matrix/dialysis buffer (v/v) in each well. All samples were further processed by adding 500 μL of stop solution containing internal standards. The mixture was vortexed and centrifuged at 4000 rpm for about 20 min. An aliquot of 100 μL of supernatant of all the samples was then removed for LC-MS/MS analysis. The single blank samples were prepared by transferring 50 μL of blank matrix to a 96-well plate and adding 50 μL of blank PBS buffer to each well. Then the matrix-matched samples were further processed by adding 500 μL of stop solution containing internal standards, following the same sample processing method as the dialysis samples.
(§3) Data analysis. The % undiluted unbound, % undiluted bound and % recovery were calculated using the following equations: […]
(§4) where F is the analyte concentration or peak area ratio of analyte/internal standard on the buffer (receiver) side of the membrane; T is the analyte concentration or peak area ratio of analyte/internal standard on the matrix (donor) side of the membrane; To is the analyte concentration or the peak area ratio of analyte/internal standard in the loading matrix sample at time zero; and D is the dilution factor determined as 4 in this assay.

[2] = Tissue binding assay (equilibrium dialysis), plasma; format: in vitro ADME; details: mouse plasma, dialysis 4 hours at 37° C., pH 7.4
Protocol: [Worded in the source for another target; this target is reported under the same test.] as §1, §2, §3, §4

Recombinant human CD38 = target: T1, Recombinant human CD38 (Homo sapiens, UniProt P28907); test: Human CD38 hydrolase assay (fluorescence-based, ε-NAD substrate); format: biochemical; details: recombinant human CD38 0.8 nM, 4 μM ε-NAD, 30 min preincubation at 25° C.
T1 sequence (P28907 1-300): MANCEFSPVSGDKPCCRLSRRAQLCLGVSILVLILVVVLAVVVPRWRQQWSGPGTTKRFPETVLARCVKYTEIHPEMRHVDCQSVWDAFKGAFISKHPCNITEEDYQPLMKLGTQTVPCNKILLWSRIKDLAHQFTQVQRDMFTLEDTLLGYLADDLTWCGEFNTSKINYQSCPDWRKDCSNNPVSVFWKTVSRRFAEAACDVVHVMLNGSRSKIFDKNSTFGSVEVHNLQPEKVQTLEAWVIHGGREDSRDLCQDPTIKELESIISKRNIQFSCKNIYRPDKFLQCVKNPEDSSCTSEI
Procedure, shortened: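 Recombinant human CD38 (0.8 nM) preincubated 30 min at 25 °C with compound in PBS without Ca2+/Mg2+, 0.005% BSA, pH 7.4; reaction started with 4 μM ε-NAD. Fluorescence (ex 300/em 410 nm) change over 10 min converted to percent inhibition against tool-inhibitor controls; IC50 from 10-point half-log curves, four-parameter fit.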

Row | SMILES | fraction unbound at 4 h [1] | fraction unbound at 4 h [2] | IC50 (Recombinant human CD38) [nM]
1 | O=C(N[C@H]1CC[C@H](NCC(F)(F)F)CC1)c1cn2nccc2c(-n2ccnc2)n1 [Example 21, 4-(1H-imidazol-1-yl)-N-((1r,4r)-4-((2,2,2-trifluoroethyl)amino)cyclohexyl)pyrazolo[1,5-a]pyrazine-6-carboxamide] | 0.34 | 0.3 | ≤ 40
2 | O=C(N[C@H]1CC[C@H](NCC(F)(F)F)CC1)c1nc(-n2ccnc2)nn2cccc12 [Example 29, 2-(1H-imidazol-1-yl)-N-((1r,4r)-4-((2,2,2-trifluoroethyl)amino)cyclohexyl)pyrrolo[2,1-f][1,2,4]triazine-4-carboxamide] | 0.064 | 0.044 | ≤ 40
3 | O=C(N[C@H]1CC[C@H](N2CCC(F)(F)C2)CC1)c1cn2ccnc2c(-n2ccnc2)n1 [Example 41, N-((1r,4r)-4-(3,3-difluoropyrrolidin-1-yl)cyclohexyl)-8-(1H-imidazol-1-yl) imidazo[1,2-a]pyrazine-6-carboxamide] | 0.15 | 0.2 | ≤ 100
4 | O=C(N[C@H]1CC[C@H](N2CC(F)(F)C2)CC1)c1cn2ncnc2c(-n2ccnc2)n1 [Example 45, N-((1r,4r)-4-(3,3-difluoroazetidin-1-yl)cyclohexyl)-8-(1H-imidazol-1-yl)-[1,2,4]triazolo[1,5-a]pyrazine-6-carboxamide] | 0.15 | 0.2 | ≤ 40
5 | O=C(N[C@H]1CC[C@H](N2CCC(F)(F)C2)CC1)c1cn2ncnc2c(-n2ccnc2)n1 [Example 48, N-((1r,4r)-4-(3,3-difluoropyrrolidin-1-yl)cyclohexyl)-8-(1H-imidazol-1-yl)-[1,2,4]triazolo[1,5-a]pyrazine-6-carboxamide] | 0.15 | 0.24 | ≤ 100

Results, then the compound that gave them:

Row | fraction unbound at 4 h [1] | fraction unbound at 4 h [2] | IC50 (Recombinant human CD38) [nM] | SMILES
6 | 0.41 | 0.4 | ≤ 40 | O=C(N[C@H]1CC[C@H](NCC(F)(F)F)CC1)c1nc(-n2ccnc2)nc2ncccc12 [Example 4, 2-(1H-imidazol-1-yl)-N-((1r,4r)-4-((2,2,2-trifluoroethyl)amino)cyclohexyl)pyrido[2,3-d]pyrimidine-4-carboxamide]
7 | 0.068 | 0.062 | ≤ 40 | O=C(N[C@H]1CC[C@H](N2CCC(F)(F)C2)CC1)c1nc(-n2ccnc2)nn2cccc12 [Example 12, N-((1r,4r)-4-(3,3-difluoropyrrolidin-1-yl)cyclohexyl)-2-(1H-imidazol-1-yl)pyrrolo[2,1-f][1,2,4]triazine-4-carboxamide]
8 | 0.056 | 0.22 | ≤ 40 | O=C(N[C@H]1CC[C@H](N2CC[C@H](F)C2)CC1)c1nc(-n2ccnc2)nn2cccc12 [Example 13, N-((1S,4r)-4-((S)-3-fluoropyrrolidin-1-yl)cyclohexyl)-2-(1H-imidazol-1-yl)pyrrolo[2,1-f][1,2,4]triazine-4-carboxamide]
9 | 0.056 | 0.24 | ≤ 40 | O=C(N[C@H]1CC[C@H](N2CC[C@@H](F)C2)CC1)c1nc(-n2ccnc2)nn2cccc12 [Example 14, N-((1R,4r)-4-((R)-3-fluoropyrrolidin-1-yl)cyclohexyl)-2-(1H-imidazol-1-yl)pyrrolo[2,1-f][1,2,4]triazine-4-carboxamide]
10 | 0.25 | 0.19 | ≤ 40 | O=C(N[C@H]1CC[C@H](NCC(F)(F)F)CC1)c1cn2ccnc2c(-n2ccnc2)n1 [Example 19, 8-(1H-imidazol-1-yl)-N-((1r,4r)-4-((2,2,2-trifluoroethyl)amino)cyclohexyl) imidazo[1,2-a]pyrazine-6-carboxamide]
11 | 0.34 | 0.14 | ≤ 40 | O=C(N[C@H]1CC[C@H](NCC(F)(F)F)CC1)c1cn2ncnc2c(-n2ccnc2)n1 [Example 20, 8-(1H-imidazol-1-yl)-N-((1r,4r)-4-((2,2,2-trifluoroethyl)amino)cyclohexyl)-[1,2,4]triazolo[1,5-a]pyrazine-6-carboxamide]
